The text below walks through data of PubChem BioAssay (NCI).

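96-well plates; 48 h exposure; 5 concentrations. Endpoints by linear interpolation between flanking doses. Not reached: highest tested concentration assigned. GI50 marks 50% less growth. TGI: total growth inhibition.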 A value given as a limit tells only on which side of the number the result lay.

Among the test systems are UACC-257 melanoma; SK-OV-3 ovarian; ACHN renal; SW-620 colon; T-47D breast; HOP-92 NSCLC; COLO 205 colon; TK-10 renal; U251 CNS; MALME-3M melanoma.
Holding throughout (assay): NCI tumour cell line growth inhibition, 48 h

For `COc1ccc2cc(-c3cnc4nonc4n3)ccc2c1`, the GI50 is 7890 nM with UACC-257 melanoma; 10800 nM in the test on SK-OV-3 ovarian; 4.33 µM in the test with ACHN renal; 1250 nM in the test with SW-620 colon; 1990 nM with T-47D breast; 16.1 µM in the test on HOP-92 NSCLC. The GI50 in the test with COLO 205 colon is 3120 nM; with TK-10 renal, 10600 nM; in the test with U251 CNS, 3210 nM; in the test with MALME-3M melanoma, 4030 nM. Moreover, the TGI in the test with UACC-257 melanoma, in the test with SK-OV-3 ovarian, in the test with ACHN renal, in the test on SW-620 colon, in the test with T-47D breast and with HOP-92 NSCLC was over 100 µM in each case. The TGI in the test on COLO 205 colon was over 100 µM; with TK-10 renal, over 100 µM; in the test on U251 CNS, 37.3 µM; with MALME-3M melanoma it was over 100 µM.

For `Cc1ccc(OP(=O)(Oc2ccc(C)cc2)N2C=Cc3ccccc3C2C#N)cc1` (stereo not given), the TGI with UACC-257 melanoma, in the test with SK-OV-3 ovarian, in the test on ACHN renal, in the test on SW-620 colon, with T-47D breast and in the test on HOP-92 NSCLC was over 100 µM each time. For the same compound, the TGI in the test with COLO 205 colon, in the test on TK-10 renal, with U251 CNS and in the test on MALME-3M melanoma was over 100 µM throughout.

`OC1CC2CCC(C1)N2CCCN1c2ccccc2Sc2ccc(Cl)cc21` (stereo not given): the TGI was found to be 2.6 µM in the test on UACC-257 melanoma; 11.6 µM in the test on SK-OV-3 ovarian; 7.07 µM with ACHN renal; 5.77 µM with SW-620 colon; 5.44 µM in the test with T-47D breast; 9.39 µM with HOP-92 NSCLC. The TGI in the test with COLO 205 colon is 3.35 µM; in the test with TK-10 renal it was 3.61 µM; in the test with U251 CNS, 3.45 µM; in the test with MALME-3M melanoma, 3.59 µM.

As for `COc1ccccc1C#Cc1ccccc1C#Cc1ccc(OCCCCCCOc2ccccc2C#Cc2ccccc2C#Cc2ccccc2OC)cc1`, the GI50 in the test with UACC-257 melanoma was over 100000 nM; with SK-OV-3 ovarian it was over 100000 nM; with ACHN renal, over 100 µM; with SW-620 colon, over 100000 nM; with T-47D breast it was over 100000 nM; in the test on HOP-92 NSCLC, 90.1 µM. Besides, the GI50 in the test with COLO 205 colon, in the test on TK-10 renal, in the test with U251 CNS and with MALME-3M melanoma was over 100000 nM throughout. The TGI in the test on UACC-257 melanoma, with SK-OV-3 ovarian, in the test on ACHN renal, in the test with SW-620 colon, in the test on T-47D breast and in the test with HOP-92 NSCLC was over 100 µM in each case. The TGI in the test on COLO 205 colon, with TK-10 renal, in the test with U251 CNS and with MALME-3M melanoma was over 100 µM each time.

In the case of `COC[C@H](NC(=O)c1cnc(C)s1)C(=O)N[C@@H](COC)C(=O)N[C@@H](Cc1ccccc1)C(=O)[C@@]1(C)CO1`, the GI50 with UACC-257 melanoma was 21100 nM; in the test on SK-OV-3 ovarian, over 94900 nM; with ACHN renal, 34.8 µM; with SW-620 colon, 21200 nM; with T-47D breast, 19900 nM; in the test on HOP-92 NSCLC it was 30.3 µM. Moreover, the GI50 is 37400 nM with COLO 205 colon, 27300 nM with TK-10 renal, 47800 nM in the test on U251 CNS and 22000 nM in the test with MALME-3M melanoma. Moreover, the TGI in the test with UACC-257 melanoma is over 70.8 µM; in the test with SK-OV-3 ovarian, over 100 µM; in the test with ACHN renal, over 100 µM; with SW-620 colon, over 100 µM; with T-47D breast, over 71.2 µM; in the test with HOP-92 NSCLC, over 82.4 µM. Further, the TGI in the test with COLO 205 colon was over 100 µM; with TK-10 renal it was over 72.2 µM; with U251 CNS, over 100 µM; in the test on MALME-3M melanoma, 64 µM.

With `C=C(C)[C@@H]1CC[C@]2(CO)CC[C@]3(C)[C@H](CC[C@@H]4[C@@]5(C)CCCNC(C)(C)[C@@H]5CC[C@]43C)[C@@H]12`, the GI50 in the test on UACC-257 melanoma was 1950 nM; in the test with SK-OV-3 ovarian, 1830 nM; in the test with ACHN renal, 1.7 µM; in the test on SW-620 colon, 1810 nM; in the test with T-47D breast it was 1730 nM; in the test on HOP-92 NSCLC it was 1.73 µM. Besides, the GI50 in the test with COLO 205 colon was 1540 nM; in the test with TK-10 renal, 1760 nM; in the test with U251 CNS, 1650 nM; in the test on MALME-3M melanoma it was 1500 nM. Further, the TGI in the test on UACC-257 melanoma came out at 3.73 µM; in the test on SK-OV-3 ovarian, 3.49 µM; in the test on ACHN renal, 3.09 µM; in the test with SW-620 colon, 3.41 µM; with T-47D breast, 3.71 µM; with HOP-92 NSCLC it was 3.33 µM. The TGI was determined as 3.24 µM in the test with COLO 205 colon, 3.5 µM with TK-10 renal, 3.09 µM in the test with U251 CNS and 3.05 µM with MALME-3M melanoma.

`Cc1ccc(CNc2ccc3nc(CCC4CCCCC4)[nH]c3c2)cc1`: the GI50 in the test on UACC-257 melanoma was 2370 nM; in the test on SK-OV-3 ovarian, 2170 nM; in the test on ACHN renal, 3.09 µM; in the test with SW-620 colon it was 1990 nM; in the test with T-47D breast it was 2560 nM; in the test on HOP-92 NSCLC, 1.23 µM. Besides, the GI50 is 1880 nM in the test with COLO 205 colon, 2870 nM in the test with TK-10 renal, 1790 nM in the test on U251 CNS and 1740 nM with MALME-3M melanoma. The TGI worked out at 6.44 µM in the test with UACC-257 melanoma; 5.44 µM in the test on SK-OV-3 ovarian; 9.65 µM in the test with ACHN renal; 4.64 µM in the test with SW-620 colon; 8.5 µM in the test on T-47D breast; 3.49 µM in the test on HOP-92 NSCLC. Besides, the TGI in the test on COLO 205 colon is 3.66 µM; in the test with TK-10 renal, 10.4 µM; in the test with U251 CNS, 3.62 µM; in the test on MALME-3M melanoma, 4.07 µM.

On to `CC1=C([Te]c2ccccc2)C(=O)c2ccccc2C1=O`, for which the GI50 was 2230 nM in the test with UACC-257 melanoma; 335 nM in the test on SK-OV-3 ovarian; 0.454 µM in the test on ACHN renal; 475 nM in the test with SW-620 colon; 488 nM in the test with T-47D breast; 0.315 µM in the test on HOP-92 NSCLC. For the same compound, the GI50 was 457 nM in the test with COLO 205 colon, 1710 nM with TK-10 renal, 331 nM in the test with U251 CNS and 1790 nM with MALME-3M melanoma. In addition, the TGI with UACC-257 melanoma is 5.92 µM; in the test on SK-OV-3 ovarian, 1.28 µM; in the test on ACHN renal, 1.61 µM; in the test with SW-620 colon, 1.74 µM; in the test on T-47D breast it was 2.78 µM; in the test with HOP-92 NSCLC, 1.39 µM. Moreover, the TGI in the test with COLO 205 colon is 1.45 µM; in the test on TK-10 renal, 4.05 µM; in the test on U251 CNS, 1.56 µM; in the test with MALME-3M melanoma it was 3.56 µM.
